Legend:
[1] = system: dermatological inflammatory diseases and other inflammatory diseases or syndrome; settings: 10 mM, topical or gargle or spray administration
psoriasis = assay: Spray of 10 mM NH4Cl solution on psoriasis sites of patient A; type: in vivo, human; settings: 10 mM NH4Cl spray once every 2 days
Text: Photos were taken before and after treatments in indicated time points. FIGS. 1, 2, 3, 4 and 5 illustrated the results of the above-identified protocol used in this study.

furuncles = assay: Topical NH4Cl in skin moisture lotion to treat furuncles; type: in vivo, human; settings: 10 mM in skin moisture lotion, 3 times a day, after 2-3 days
pain of body = assay: Topical NH4Cl in skin moisture lotion to reduce pain of body; type: in vivo, human; settings: 10 mM in skin moisture lotion, once a day, after 2-3 days
subcutaneous masses = assay: Topical NH4Cl in skin moisture lotion to treat subcutaneous masses; type: in vivo, human; settings: 10 mM in skin moisture lotion, once a day, after 2-3 days
acnes or furuncles = assay: Topical NH4Cl lotion on face to prevent acnes or furuncles; type: in vivo, human; settings: NH4+ 10 mM in skin moisture lotion, topical on face once a week

SMILES | effects for dermatological inflammatory diseases (eczema, acnes, psoriasis, furuncles) and other inflammatory diseases or syndrome [1] | psoriasis on one hand (psoriasis; 2 months, patient A (FIG. 3)) | psoriasis on both elbows (psoriasis; 3 months, patient A (FIG. 2)) | psoriasis on the back of the body (psoriasis; 3 months, patient A (FIG. 4)) | psoriasis on both hands (psoriasis; 3 months, patient A with psoriasis for 3 years (FIG. 1)) | appearance of psoriasis on feet and both knees (psoriasis; 4 months, patient A (FIG. 5)) | furuncles (pain, red, nodule) (furuncles) | pain of body (pain of body) | subcutaneous masses (subcutaneous masses) | prevention of acnes or furuncles (acnes or furuncles)
CC(=O)O.N [ammonium acetate] | excellent effects |  |  |  |  |  |  |  |  | 
N.N.O=S(=O)(O)O [ammonium sulfate] | excellent effects |  |  |  |  |  |  |  |  | 
Cl.N [NH4Cl, ammonium chloride] | excellent effects | cures psoriasis | cures psoriasis | cure psoriasis | cures psoriasis | improve appearance of psoriasis | furuncles were cured | completed stopped or significantly reduced | masses less than 1 cm would be disappeared | could prevent acnes or furuncles

From patent US20150072026A1, “Anti-inflammatory ion and uses thereof” (Yunyuan Li, priority 2013, published 2015)
